Data published in patent publication US20230137491A1, “PEPTIDES AND USES THEREOF” (SINTICA BIOTECH SOCIETÀ A RESPONSABILITÀ LIMITATA …, priority 2020, published 2023).
Non-standard residues stand in square brackets, D forms with d. methoxy‑PEG 20 kDa = linear 20 kDa methoxy-PEG conjugated through D-Cys sulfur

Key:
[1] = test system: melanoma cell lines (WM115, WM266-4, SKmel28, WM793B, 1205Lu); assay: MTT assay in melanoma cell lines; format: cell-based, human
Protocol: 5×10^3 cells/well were seeded in 96-well culture plates. At different time points, cells were incubated with 0.5% MTT (3-(4,5-dimethylthiazol-2-yl)-2,5-diphenyltetrazolium bromide) for 4 h at 37° C. and then dissolved with 100 μl Isopropanol with 0.04N HCl. The plate was read at 560 nm with a reference filter of 650 nm. Results are expressed as viability percentage, as compared to control.
Five melanoma cell lines were used for testing the efficacy of XYZ or its non-PEGylated peptide component: WM115 and WM266-4, which are respectively the primary and metastatic melanoma derived from the same patient and expressing high levels of CD271, and SKme128, a metastatic melanoma cell line expressing low levels of CD271, WM793B, a primary melanoma, and 1205Lu derived from lung metastatic melanoma. The viability of the cell culture is assessed by MTT conversion. MTT solution is applied to the plates and placed into a cell culture incubator for 4 hours. The blue formazan metabolite produced by viable cells is then extracted into isopropanol and absorbance is measured at 570 nm using a spectrophotometer.

CD271 = target: T1, CD271 (Homo sapiens, UniProt P08138); assay: Immunoprecipitation of melanoma cell lysates with the peptide, blotted against CD271; format: binding; conditions: protein extracts of WM266-4 and 1205Lu melanoma cell lines
T1 construct: total protein lysates of WM266-4 and Lu1205 melanoma cell lines were immunoprecipitated with the peptide conjugated to sepharose beads; endogenous in cells; host or cells: WM266-4 and 1205Lu melanoma cell lines (ATCC)
T1 sequence (P08138 29-427): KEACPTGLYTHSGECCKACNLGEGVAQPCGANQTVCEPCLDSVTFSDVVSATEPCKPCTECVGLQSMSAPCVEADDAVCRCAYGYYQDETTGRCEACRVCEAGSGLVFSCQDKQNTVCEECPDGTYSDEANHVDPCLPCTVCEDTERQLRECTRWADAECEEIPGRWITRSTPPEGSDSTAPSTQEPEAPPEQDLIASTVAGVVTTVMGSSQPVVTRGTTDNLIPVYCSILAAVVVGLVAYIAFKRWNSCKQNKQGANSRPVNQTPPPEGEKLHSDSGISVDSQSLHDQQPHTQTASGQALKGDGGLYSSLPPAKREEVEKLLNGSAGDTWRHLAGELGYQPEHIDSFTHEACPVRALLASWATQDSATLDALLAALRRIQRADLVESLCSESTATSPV
Protocol: FIG. 1. […] Protein extracts from two melanoma cell lines were immunoprecipitated with the Pegylated form of the peptide (XYZ) and blotted against CD271. The sepharose beads-protein lysates (without CD271) is used as negative control, while no-immunoprecipitated protein lysate from WM266-4 is used as positive control.
1205Lu and WM266-4 melanoma cell lines were treated with or without XYZ. 24 h later cells were harvested with RIPA buffer (10 mM Tris, pH 8.0; 150 mM NaCl; 1% Nonidet P-40, 0.5% deoxycholate; 0.1% SDS) containing protease inhibitors. Nuclei were removed by centrifugation (11,000 rpm for 3 min). Monoclonal antibody anti-p75NTR (Upstate) was bound to sepharose beads lh at 4° C. under rotation. Then, pre-cleared lysates were conjugated to sepharose beads-antibody complex or to sepharose beads alone as negative control, overnight at 4° C. under rotation. Immunocomplexes were washed with Port Buffer (10 mM Tris-HCl, pH 8.5; 150 mM NaCl; 0.1% Renex 30; 0.01% BSA; 2.5% NaN3) six times and with PT Buffer (10 mM Tris-HCl, pH 8.5; 150 mM NaCl; 0.5% Tween 20; 2.5% NaN3) three times. Samples were eluted with 1× Laemnli sample buffer for […] at 90° C. and Western Blotting for p75NTR was performed.
Immunocomplexes were washed with Port Buffer and with PT Buffer, then eluted with Laemnli sample buffer for 5′ at 90° C. […]

[2] = test system: SKmel 28 cell line in zebrafish; assay: Zebrafish xenotransplant with SKmel28 cell line; format: in vivo; conditions: SKmel28, embryos with metastasis counted 5 days post injection
Protocol: FIG. 12. […] SKMel28 melanoma cell line was treated with XYZ, DTIC, the peptide in combination with DTIC, or left untreated. They were stained with Vibrant Cell Labelling Solution (red) and injected into the yolk of transparent zebrafish larvae and monitored. The number of embryos with metastasis was counted at 5 days post injection.
Zebrafish handling was performed at the Zebrafish Centre of the University of Padova, Italy, under ethical committee (OPBA) authorization 407/2015-PR. Zebrafish embryos were obtained from natural spawning of albino adults, raised following standard protocols (Westerfield, M et al., 2000) and staged according to Kimmel et al. (1995). […] Zebrafishes were monitored daily and documented from 1 day post injection (dpi) up to 1 week (experimental endpoint). […]
For xenotransplantation, albino embryos were mechanically dechorionated at 2 days post-fertilisation, anesthetized with tricaine 0.16 mg/ml and placed along plastic lanes immersed in 2% methylcellulose/PBS. […] Stained cells were loaded in a glass capillary needle and microinjected into the yolk (about 50 cells/embryo), Xenotransplanted embryos were monitored daily and documented from one day post injection up to one week.

Q: “Ac-DMet-DLeu-Gly-DIle-DIle-DAla-Gly-DLys-DAsn-DSer-Gly-DCys-NH2 with a linear 20 kDa methoxy-PEG polymer conjugated to the D-Cys residue through the sulfur atom of the latter (Ac-[dM][dL]G[dI][dI][dA]G[dK][dN][dS]G[dC](methoxy‑PEG 20 kDa)-NH2) [XYZ]” was tested. Which “cell proliferation (MTT assay), dose dependence” value ([1]; WM115, WM266-4 and SKmel28, different doses and time points) did it give?
A: diminishes cell proliferation, as shown by MTT assay, in a dose-dependent manner

Q: And the “cell proliferation (MTT assay)” value ([1]; five melanoma cell lines, 48 h and 96 h after treatment, no significant difference between PEGylated and non-PEGylated form)?
A: reduce cell proliferation

Q: And the “binding to CD271 (immunoprecipitation, blot against CD271)” value (CD271)?
A: immunoprecipitate with CD271

Q: And the “full metastasis in xenotransplanted zebrafish” value [2]?
A: reduces full metastasis
